Source: ChEMBL document CHEMBL5352492, “Application of deep generative model for design of Pyrrolo[2,3-d] pyrimidine derivatives as new selective TANK binding kinase 1 (TBK1) inhibitors” (Eur J Med Chem, 2023)
Blank lines part the entries; values can stand above or below the molecule they belong to. Active and inactive are the calls of the source. No cut-off for these calls is given here.

Assays:
[1] = target: T1, Serine/threonine-protein kinase TBK1 (Homo sapiens) (UniProt Q9UHD2); assay: Inhibition of TBK1 (unknown origin) incubated at 100 nM for 1 hr in presence of ATP by FRET based Z'-Lyte assay relative to control
T1 sequence (whole entry): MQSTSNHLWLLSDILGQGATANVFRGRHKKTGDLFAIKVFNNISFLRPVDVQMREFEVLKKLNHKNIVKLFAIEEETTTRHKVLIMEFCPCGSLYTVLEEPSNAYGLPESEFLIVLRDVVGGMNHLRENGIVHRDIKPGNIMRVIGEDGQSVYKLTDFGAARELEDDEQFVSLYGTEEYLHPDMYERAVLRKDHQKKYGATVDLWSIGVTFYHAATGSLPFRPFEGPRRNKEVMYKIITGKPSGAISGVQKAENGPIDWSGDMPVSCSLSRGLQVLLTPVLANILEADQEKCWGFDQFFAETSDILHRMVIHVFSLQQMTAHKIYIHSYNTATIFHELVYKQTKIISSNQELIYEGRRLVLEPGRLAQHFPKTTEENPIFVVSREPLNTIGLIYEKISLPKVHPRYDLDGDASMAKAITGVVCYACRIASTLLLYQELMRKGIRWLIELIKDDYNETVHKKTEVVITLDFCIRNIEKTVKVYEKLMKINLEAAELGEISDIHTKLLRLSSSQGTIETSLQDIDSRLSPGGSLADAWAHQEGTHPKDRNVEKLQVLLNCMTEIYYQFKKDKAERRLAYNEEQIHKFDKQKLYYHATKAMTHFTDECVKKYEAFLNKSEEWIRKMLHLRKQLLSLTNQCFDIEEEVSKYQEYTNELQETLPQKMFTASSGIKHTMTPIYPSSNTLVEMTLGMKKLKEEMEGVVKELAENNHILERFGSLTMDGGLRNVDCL

[2] = target: T1, Serine/threonine-protein kinase TBK1 (Homo sapiens); assay: Inhibition of TBK1 (unknown origin) incubated at 10 nM for 1 hr in presence of ATP by FRET based Z'-Lyte assay relative to control
[3] = target: T1, Serine/threonine-protein kinase TBK1 (Homo sapiens); assay: Inhibition of TBK1 (unknown origin) incubated at 1000 nM for 1 hr in presence of ATP by FRET based Z'-Lyte assay relative to control
[4] = tested on: THP1-Blue ISG; assay: Inhibition of LPS-induced cxcl10 in human THP1-Blue ISG cells treated at 1 uM for 2 hrs RTq-PCR analysis; type: functional, cell-based
[5] = tested on: RAW264.7; assay: Inhibition of LPS-induced ifn-beta in mouse RAW264.7 cells treated at 1 uM for 2 hrs RTq-PCR analysis; type: functional, cell-based
[6] = tested on: RAW264.7; assay: Inhibition of LPS-induced cxcl10 in mouse RAW264.7 cells treated at 1 uM for 2 hrs RTq-PCR analysis; type: functional, cell-based
[7] = tested on: THP1-Blue ISG; assay: Inhibition of LPS-induced ifn-beta in human THP1-Blue ISG cells treated at 1 uM for 2 hrs RTq-PCR analysis; type: functional, cell-based
[8] = target: T2, Serine/threonine-protein kinase TBK1 (Homo sapiens, UniProt Q9UHD2); assay: Inhibition of TBK1 (unknown origin) incubated for 1 hr in presence of ATP by FRET based Z'-Lyte assay
T2 sequence (Q9UHD2 whole entry): T1 sequence (whole entry)

[9] = tested on: RAW264.7; assay: Inhibition of LPS-induced ifn-beta in mouse RAW264.7 cells treated for 2 hrs RTq-PCR analysis; type: functional, cell-based; conditions: dose 0.1-1 µM
[10] = target: Fibroblast growth factor receptor 2 (Homo sapiens) (UniProt P21802); assay: Inhibition of FGFR2 (unknown origin) at 100 to 1000 nM relative to control; conditions: dose 100-1000 nM
[11] = target: Fibroblast growth factor receptor 3 (Homo sapiens) (UniProt P22607); assay: Inhibition of FGFR3 (unknown origin) at 100 to 1000 nM relative to control; conditions: dose 100-1000 nM
[12] = target: Mast/stem cell growth factor receptor Kit (Homo sapiens) (UniProt P10721); assay: Inhibition of KIT (unknown origin) at 100 to 1000 nM relative to control; conditions: dose 100-1000 nM
[13] = target: Receptor-type tyrosine-protein kinase FLT3 (Homo sapiens) (UniProt P36888); assay: Inhibition of Flt-3 (unknown origin) at 100 to 1000 nM relative to control; conditions: dose 100-1000 nM
[14] = Antiproliferative activity against LLC cells measured after 72 hrs by SRB staining method; type: functional, cell-based; conditions: Mus musculus, Lewis lung carcinoma
[15] = target: Receptor tyrosine-protein kinase erbB-2 (Homo sapiens) (UniProt P04626); assay: Inhibition of ErbB2 (unknown origin) at 100 to 1000 nM relative to control; conditions: dose 100-1000 nM
[16] = target: Epidermal growth factor receptor (Homo sapiens) (UniProt P00533); assay: Inhibition of EGFR (unknown origin) at 100 to 1000 nM relative to control; conditions: dose 100-1000 nM
[17] = target: Proto-oncogene tyrosine-protein kinase receptor Ret (Homo sapiens) (UniProt P07949); assay: Inhibition of RET (unknown origin) at 100 to 1000 nM relative to control; conditions: dose 100-1000 nM
[18] = target: Proto-oncogene tyrosine-protein kinase Src (Homo sapiens) (UniProt P12931); assay: Inhibition of Src (unknown origin) at 100 to 1000 nM relative to control; conditions: dose 100-1000 nM
[19] = target: Focal adhesion kinase 1 (Homo sapiens) (UniProt Q05397); assay: Inhibition of FAK (unknown origin) at 100 to 1000 nM relative to control; conditions: dose 100-1000 nM
[20] = target: Vascular endothelial growth factor receptor 3 (Homo sapiens) (UniProt P35916); assay: Inhibition of VEGFR3 (unknown origin) at 100 to 1000 nM relative to control; conditions: dose 100-1000 nM
[21] = tested on: A549; assay: Antiproliferative activity against human A549 cells measured after 72 hrs by SRB staining method; type: functional, cell-based; conditions: A549, 72 h
[22] = target: Ephrin type-B receptor 2 (Homo sapiens) (UniProt P29323); assay: Inhibition of EPH-B2 (unknown origin) at 100 to 1000 nM relative to control; conditions: dose 100-1000 nM
[23] = target: Macrophage-stimulating protein receptor (Homo sapiens) (UniProt Q04912); assay: Inhibition of RON (unknown origin) at 100 to 1000 nM relative to control; conditions: dose 100-1000 nM
[24] = tested on: THP1-Blue ISG; assay: Inhibition of LPS-induced cxcl10 in human THP1-Blue ISG cells treated for 2 hrs RTq-PCR analysis; type: functional, cell-based; conditions: dose 0.1-1 µM
[25] = tested on: THP1-Blue ISG; assay: Inhibition of LPS-induced ifn-beta in human THP1-Blue ISG cells treated for 2 hrs RTq-PCR analysis; type: functional, cell-based; conditions: dose 0.1-1 µM
[26] = target: Platelet-derived growth factor receptor beta (Homo sapiens) (UniProt P09619); assay: Inhibition of PDGFR-beta (unknown origin) at 100 to 1000 nM relative to control; conditions: dose 100-1000 nM
[27] = target: Ephrin type-A receptor 2 (Homo sapiens) (UniProt P29317); assay: Inhibition of EPH-A2 (unknown origin) at 100 to 1000 nM relative to control; conditions: dose 100-1000 nM
[28] = target: Tyrosine-protein kinase BTK (Homo sapiens) (UniProt Q06187); assay: Inhibition of BTK (unknown origin) at 100 to 1000 nM relative to control; conditions: dose 100-1000 nM
[29] = target: Fibroblast growth factor receptor 1 (Homo sapiens) (UniProt P11362); assay: Inhibition of FGFR1 (unknown origin) at 100 to 1000 nM relative to control; conditions: dose 100-1000 nM
[30] = target: Insulin receptor (Homo sapiens) (UniProt P06213); assay: Inhibition of IR (unknown origin) at 100 to 1000 nM relative to control; conditions: dose 100-1000 nM
[31] = target: Fibroblast growth factor receptor 4 (Homo sapiens) (UniProt P22455); assay: Inhibition of FGFR4 (unknown origin) at 100 to 1000 nM relative to control; conditions: dose 100-1000 nM
[32] = target: Platelet-derived growth factor receptor alpha (Homo sapiens) (UniProt P16234); assay: Inhibition of PDGFR-alpha (unknown origin) at 100 to 1000 nM relative to control; conditions: dose 100-1000 nM
[33] = target: Insulin-like growth factor 1 receptor (Homo sapiens) (UniProt P08069); assay: Inhibition of IGF1R (unknown origin) at 100 to 1000 nM relative to control; conditions: dose 100-1000 nM
[34] = target: Macrophage colony-stimulating factor 1 receptor (Homo sapiens) (UniProt P07333); assay: Inhibition of CSF1R (unknown origin) at 100 to 1000 nM relative to control; conditions: dose 100-1000 nM
[35] = target: Activated CDC42 kinase 1 (Homo sapiens) (UniProt Q07912); assay: Inhibition of ACK1 (unknown origin) at 100 to 1000 nM relative to control; conditions: dose 100-1000 nM
[36] = target: Vascular endothelial growth factor receptor 1 (Homo sapiens) (UniProt P17948); assay: Inhibition of VEGFR1 (unknown origin) at 100 to 1000 nM relative to control; conditions: dose 100-1000 nM
[37] = target: T1, Serine/threonine-protein kinase TBK1 (Homo sapiens); assay: Inhibition of TBK1 phosphorylation (unknown origin) of downstream signalling effector protein S6K at 1 to 20 uM after 24 hrs by Western blotting analysis; conditions: dose 1-20 µM
[38] = tested on: RAW264.7; assay: Inhibition of LPS-induced cxcl10 in mouse RAW264.7 cells treated for 2 hrs RTq-PCR analysis; type: functional, cell-based; conditions: dose 0.1-1 µM
[39] = target: T2, Serine/threonine-protein kinase TBK1; assay: Inhibition of TBK1 in human THP1-Blue ISG cells by measuring SEAP gene expression incubated for 24 hrs by reporter gene assay; type: cell-based
[40] = target: Vascular endothelial growth factor receptor 2 (Homo sapiens) (UniProt P35968); assay: Inhibition of VEGFR2 (unknown origin) at 100 to 1000 nM relative to control; conditions: dose 100-1000 nM
[41] = target: Tyrosine-protein kinase ITK/TSK (Homo sapiens) (UniProt Q08881); assay: Inhibition of ITK (unknown origin) at 100 to 1000 nM relative to control; conditions: dose 100-1000 nM
[42] = target: Receptor tyrosine-protein kinase erbB-4 (Homo sapiens) (UniProt Q15303); assay: Inhibition of ErbB4 (unknown origin) at 100 to 1000 nM relative to control; conditions: dose 100-1000 nM
[43] = target: Tyrosine-protein kinase ABL1 (Homo sapiens) (UniProt P00519); assay: Inhibition of Abl (unknown origin) at 100 to 1000 nM relative to control; conditions: dose 100-1000 nM

Chain of Proto-oncogene tyrosine-protein kinase receptor Ret (Homo sapiens) (P07949 whole entry): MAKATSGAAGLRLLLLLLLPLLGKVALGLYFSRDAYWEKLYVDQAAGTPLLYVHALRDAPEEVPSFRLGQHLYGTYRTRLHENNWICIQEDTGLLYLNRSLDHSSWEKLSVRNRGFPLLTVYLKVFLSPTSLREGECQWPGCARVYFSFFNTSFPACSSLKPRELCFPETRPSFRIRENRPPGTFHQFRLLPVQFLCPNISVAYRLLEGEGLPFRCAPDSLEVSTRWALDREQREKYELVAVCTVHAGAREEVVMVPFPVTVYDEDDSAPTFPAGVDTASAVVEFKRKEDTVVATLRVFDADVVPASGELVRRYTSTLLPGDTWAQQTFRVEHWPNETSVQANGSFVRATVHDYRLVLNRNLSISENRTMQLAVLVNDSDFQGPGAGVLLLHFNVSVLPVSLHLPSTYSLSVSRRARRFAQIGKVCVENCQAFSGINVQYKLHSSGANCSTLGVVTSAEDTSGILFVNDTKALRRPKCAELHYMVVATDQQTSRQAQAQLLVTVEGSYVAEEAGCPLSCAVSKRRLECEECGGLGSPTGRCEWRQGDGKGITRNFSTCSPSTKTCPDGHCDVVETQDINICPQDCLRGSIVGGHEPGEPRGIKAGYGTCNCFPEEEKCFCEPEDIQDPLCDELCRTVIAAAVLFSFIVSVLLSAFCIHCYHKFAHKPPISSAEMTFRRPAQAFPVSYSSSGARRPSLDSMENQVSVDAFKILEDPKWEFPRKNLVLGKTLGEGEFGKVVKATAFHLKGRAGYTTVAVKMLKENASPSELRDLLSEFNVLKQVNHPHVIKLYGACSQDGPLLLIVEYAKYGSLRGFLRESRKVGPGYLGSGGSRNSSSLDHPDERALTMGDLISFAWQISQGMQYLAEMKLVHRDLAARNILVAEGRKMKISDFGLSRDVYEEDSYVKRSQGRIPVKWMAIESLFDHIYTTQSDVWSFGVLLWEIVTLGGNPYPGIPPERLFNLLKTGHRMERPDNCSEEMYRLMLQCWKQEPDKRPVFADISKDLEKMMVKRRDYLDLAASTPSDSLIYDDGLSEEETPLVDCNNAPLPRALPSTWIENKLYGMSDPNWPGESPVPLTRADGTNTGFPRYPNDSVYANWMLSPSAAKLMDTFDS
Chain of Vascular endothelial growth factor receptor 1 (Homo sapiens) (P17948 whole entry): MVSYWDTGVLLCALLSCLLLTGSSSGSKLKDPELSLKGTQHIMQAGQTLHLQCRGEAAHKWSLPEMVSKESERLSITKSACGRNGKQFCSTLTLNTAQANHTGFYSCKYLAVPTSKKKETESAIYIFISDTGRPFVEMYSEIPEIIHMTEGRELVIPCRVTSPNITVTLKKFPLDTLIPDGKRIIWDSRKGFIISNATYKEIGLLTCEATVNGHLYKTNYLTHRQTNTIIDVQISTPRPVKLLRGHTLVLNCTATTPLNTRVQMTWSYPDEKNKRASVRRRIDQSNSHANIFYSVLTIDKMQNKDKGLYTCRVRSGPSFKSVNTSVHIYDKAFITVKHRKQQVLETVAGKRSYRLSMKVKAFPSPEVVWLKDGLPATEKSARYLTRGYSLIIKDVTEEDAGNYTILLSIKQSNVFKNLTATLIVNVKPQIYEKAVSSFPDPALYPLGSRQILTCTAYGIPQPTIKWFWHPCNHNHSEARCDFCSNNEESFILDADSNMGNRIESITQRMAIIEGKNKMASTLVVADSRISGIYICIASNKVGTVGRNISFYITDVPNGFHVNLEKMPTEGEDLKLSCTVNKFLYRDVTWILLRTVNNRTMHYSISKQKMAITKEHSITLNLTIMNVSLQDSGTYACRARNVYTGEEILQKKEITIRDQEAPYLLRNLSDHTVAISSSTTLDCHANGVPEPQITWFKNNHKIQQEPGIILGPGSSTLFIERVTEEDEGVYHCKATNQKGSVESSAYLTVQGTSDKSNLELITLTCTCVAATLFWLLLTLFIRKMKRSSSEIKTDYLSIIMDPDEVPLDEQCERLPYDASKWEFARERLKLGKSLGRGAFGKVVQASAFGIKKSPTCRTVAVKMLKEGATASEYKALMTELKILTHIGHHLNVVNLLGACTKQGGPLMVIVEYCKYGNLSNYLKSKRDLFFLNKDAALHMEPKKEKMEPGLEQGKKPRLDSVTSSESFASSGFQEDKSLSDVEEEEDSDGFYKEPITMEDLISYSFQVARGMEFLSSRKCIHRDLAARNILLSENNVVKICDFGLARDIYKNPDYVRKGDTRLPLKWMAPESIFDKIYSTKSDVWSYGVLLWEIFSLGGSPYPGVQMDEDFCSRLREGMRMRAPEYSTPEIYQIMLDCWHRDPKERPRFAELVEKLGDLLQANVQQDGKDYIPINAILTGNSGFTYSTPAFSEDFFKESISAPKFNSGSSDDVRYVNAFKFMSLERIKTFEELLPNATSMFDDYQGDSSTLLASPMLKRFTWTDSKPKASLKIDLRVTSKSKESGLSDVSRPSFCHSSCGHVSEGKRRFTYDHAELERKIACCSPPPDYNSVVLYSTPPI
Chain of Receptor-type tyrosine-protein kinase FLT3 (Homo sapiens) (P36888 whole entry): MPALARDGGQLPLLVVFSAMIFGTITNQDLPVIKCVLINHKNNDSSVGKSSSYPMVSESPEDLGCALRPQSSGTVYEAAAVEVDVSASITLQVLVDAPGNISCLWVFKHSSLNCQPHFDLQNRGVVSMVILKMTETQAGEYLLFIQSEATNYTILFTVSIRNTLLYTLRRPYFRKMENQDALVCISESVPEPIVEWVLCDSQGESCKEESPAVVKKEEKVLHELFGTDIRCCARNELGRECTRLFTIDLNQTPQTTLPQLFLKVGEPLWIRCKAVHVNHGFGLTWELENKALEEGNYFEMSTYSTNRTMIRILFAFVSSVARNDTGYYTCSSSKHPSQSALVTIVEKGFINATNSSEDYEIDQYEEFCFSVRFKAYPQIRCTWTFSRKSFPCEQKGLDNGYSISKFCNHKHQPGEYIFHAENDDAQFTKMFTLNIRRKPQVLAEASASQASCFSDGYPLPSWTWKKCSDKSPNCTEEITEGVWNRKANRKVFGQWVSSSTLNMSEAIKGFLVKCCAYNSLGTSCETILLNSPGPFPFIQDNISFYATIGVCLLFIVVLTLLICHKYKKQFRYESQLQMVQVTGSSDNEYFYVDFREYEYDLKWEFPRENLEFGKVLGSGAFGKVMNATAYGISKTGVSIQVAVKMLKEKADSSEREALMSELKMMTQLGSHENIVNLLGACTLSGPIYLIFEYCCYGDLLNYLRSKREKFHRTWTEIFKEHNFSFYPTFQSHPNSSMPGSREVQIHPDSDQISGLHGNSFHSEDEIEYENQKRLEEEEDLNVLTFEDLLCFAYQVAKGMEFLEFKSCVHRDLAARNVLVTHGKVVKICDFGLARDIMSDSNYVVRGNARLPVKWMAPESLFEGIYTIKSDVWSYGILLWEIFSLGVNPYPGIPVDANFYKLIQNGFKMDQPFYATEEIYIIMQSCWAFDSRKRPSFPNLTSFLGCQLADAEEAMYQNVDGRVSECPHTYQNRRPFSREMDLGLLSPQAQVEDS
Chain of Platelet-derived growth factor receptor beta (Homo sapiens) (P09619 whole entry): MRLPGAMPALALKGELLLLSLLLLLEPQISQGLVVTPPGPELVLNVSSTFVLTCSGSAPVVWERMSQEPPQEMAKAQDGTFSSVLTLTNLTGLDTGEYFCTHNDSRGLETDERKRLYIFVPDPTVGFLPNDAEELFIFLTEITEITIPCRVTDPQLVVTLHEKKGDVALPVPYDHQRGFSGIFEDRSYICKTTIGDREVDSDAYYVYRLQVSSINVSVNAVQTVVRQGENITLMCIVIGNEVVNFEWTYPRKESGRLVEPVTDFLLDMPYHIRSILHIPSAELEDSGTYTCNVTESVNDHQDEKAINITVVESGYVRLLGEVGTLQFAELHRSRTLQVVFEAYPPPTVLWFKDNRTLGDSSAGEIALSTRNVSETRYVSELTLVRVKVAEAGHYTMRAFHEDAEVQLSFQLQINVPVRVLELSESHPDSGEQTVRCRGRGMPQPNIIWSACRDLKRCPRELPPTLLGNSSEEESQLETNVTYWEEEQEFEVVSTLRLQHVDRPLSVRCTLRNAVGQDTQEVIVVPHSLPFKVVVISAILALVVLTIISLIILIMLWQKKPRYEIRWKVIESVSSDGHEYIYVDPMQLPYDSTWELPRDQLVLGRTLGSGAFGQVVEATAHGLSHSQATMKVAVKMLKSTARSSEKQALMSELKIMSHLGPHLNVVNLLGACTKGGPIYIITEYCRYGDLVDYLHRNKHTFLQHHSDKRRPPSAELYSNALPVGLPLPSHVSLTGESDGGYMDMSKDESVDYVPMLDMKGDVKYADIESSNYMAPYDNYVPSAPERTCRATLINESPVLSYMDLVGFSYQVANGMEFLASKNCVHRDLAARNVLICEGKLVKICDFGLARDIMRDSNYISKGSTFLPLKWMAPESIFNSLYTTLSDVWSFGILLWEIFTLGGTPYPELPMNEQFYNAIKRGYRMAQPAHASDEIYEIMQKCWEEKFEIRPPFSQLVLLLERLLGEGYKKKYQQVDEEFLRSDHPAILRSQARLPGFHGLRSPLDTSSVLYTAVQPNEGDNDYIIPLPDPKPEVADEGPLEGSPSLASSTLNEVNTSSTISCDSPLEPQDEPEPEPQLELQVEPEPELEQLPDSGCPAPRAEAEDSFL
Chain of Proto-oncogene tyrosine-protein kinase Src (Homo sapiens) (P12931 2-536 limits assumed): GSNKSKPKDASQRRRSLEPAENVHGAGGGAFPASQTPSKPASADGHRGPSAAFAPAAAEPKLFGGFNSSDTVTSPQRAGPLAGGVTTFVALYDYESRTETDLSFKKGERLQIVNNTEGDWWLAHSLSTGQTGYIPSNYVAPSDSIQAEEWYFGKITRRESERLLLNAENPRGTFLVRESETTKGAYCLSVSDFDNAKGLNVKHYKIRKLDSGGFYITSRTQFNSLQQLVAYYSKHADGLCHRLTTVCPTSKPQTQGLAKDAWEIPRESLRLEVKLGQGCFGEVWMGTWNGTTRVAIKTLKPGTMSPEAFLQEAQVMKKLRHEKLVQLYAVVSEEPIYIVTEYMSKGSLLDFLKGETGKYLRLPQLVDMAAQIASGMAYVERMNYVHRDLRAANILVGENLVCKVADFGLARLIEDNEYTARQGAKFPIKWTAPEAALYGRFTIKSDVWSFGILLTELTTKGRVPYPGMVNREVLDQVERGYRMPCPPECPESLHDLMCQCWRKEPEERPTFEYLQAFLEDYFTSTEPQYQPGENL

- inhibition [1]: < 0%
- inhibition [2]: < 0%
- inhibition [3]: < 0%
SMILES: O=C(C1CCC1)N1CCC(n2ccc3cnc(Nc4cccc(CN5CCOCC5)c4)nc32)C1 (centres undefined)

SMILES: O=C(NCCCNc1nc(Nc2cccc(CN3CCOCC3)c2)ncc1C1CC1)C1CCC1
- inhibition [4]: Active
- inhibition [5]: Active
- inhibition [6]: Active
- inhibition [7]: Active

- inhibition [1]: < 0%
- inhibition [2]: < 0%
- inhibition [3]: 26.4%
SMILES: N#Cc1cn(CCCNC(=O)C2CCC2)c2nc(Nc3cccc(CN4CCOCC4)c3)ncc12

- inhibition [1]: < 0%
- inhibition [2]: < 0%
- inhibition [3]: 29%
SMILES: O=C(NCCCn1ncc2cnc(Nc3cccc(CN4CCOCC4)c3)nc21)C1CCC1

- inhibition [1]: 44.5%
- inhibition [2]: -3.2%
- inhibition [3]: 72.6%
- IC50 [8]: 53.6 nM
SMILES: CN1CCN(Cc2cccc(Nc3ncc4ccn(CCCNC(=O)C5CCC5)c4n3)c2)CC1

- inhibition [1]: < 0%
- inhibition [2]: < 0%
- inhibition [3]: 25.5%
SMILES: O=C(NCCCn1cnc2cnc(Nc3cccc(CN4CCOCC4)c3)nc21)C1CCC1

- inhibition [1]: 15.7%
- inhibition [2]: < 0%
- inhibition [3]: 72.8%
SMILES: O=C(NCc1cccc(-n2ccc3cnc(Nc4cccc(CN5CCOCC5)c4)nc32)c1)C1CCC1

- inhibition [1]: 69.7%
- inhibition [2]: 23.3%
- inhibition [3]: 92.1%
- IC50 [8]: 66.7 nM
SMILES: O=C(NCCCn1ccc2cnc(Nc3cccc(CN4CCOCC4)c3)nc21)C1CCC1

- inhibition [1]: < 0%
- inhibition [2]: < 0%
- inhibition [3]: < 0%
SMILES: Cc1cc(=O)n(CCCNC(=O)C2CCC2)c2nc(Nc3cccc(CN4CCOCC4)c3)ncc12

- inhibition [10]: < 35%
- inhibition [11]: < 35%
- inhibition [12]: < 35%
- inhibition [13]: < 35%
- inhibition [15]: < 35%
- inhibition [1]: 66.2%
- inhibition [16]: < 35%
- inhibition [17]: < 35%
- inhibition [2]: 56.7%
- inhibition [18]: < 35%
- inhibition [3]: 89%
- inhibition [19]: < 35%
- inhibition [20]: < 35%
- IC50 [8]: 22.4 nM
- IC50 [21]: 17600 nM
- inhibition [22]: < 35%
- inhibition [23]: < 35%
- inhibition [26]: < 35%
- inhibition [27]: < 35%
- inhibition [28]: < 35%
- inhibition [29]: < 35%
- inhibition [30]: < 35%
- inhibition [31]: < 35%
- inhibition [32]: < 35%
- inhibition [33]: < 35%
- inhibition [34]: < 35%
- inhibition [35]: < 35%
- inhibition [36]: < 35%
- inhibition [37]: Dose-Dependent Effect
- IC50 [39]: 566 nM
- inhibition [40]: < 35%
- inhibition [41]: < 35%
- inhibition [42]: < 35%
- inhibition [43]: < 35%
SMILES: CC(=O)N1CCN(Cc2cccc(Nc3ncc4ccn(CCCNC(=O)C5CCC5)c4n3)c2)CC1
- inhibition [9]: Dose-Dependent Effect
- IC50 [14]: 9400 nM
- inhibition [24]: Dose-Dependent Effect
- inhibition [25]: Dose-Dependent Effect
- inhibition [38]: Dose-Dependent Effect
